Laboratory results reported in patent US20240238213A1 (New York University in Abu Dhabi Corporation, priority 2021, published 2024).

Key:
[1] = test system: STZ-induced diabetic rats; conditions: rat, in vivo
[2] = test system: STZ-induced diabetic rats; assay: In vivo hypoglycemic effect; set-up: species or system Wistar rats; conditions: subcutaneous injection, 5 IU kg^−1
[3] = test system: STZ-induced diabetic rats; conditions: SC insulin 5 IU·kg^−1 or oral TTA-DFP-nCOF/Insulin 50 IU·kg^−1
[4] = test system: Hep-G2 cells; assay: Insulin-FITC internalization in cells by confocal microscopy; assay type: cell-based, human; conditions: 4 h incubation, [Insulin-FITC]=10 μM
[5] = test system: R-HepG2 cells; assay: Glucose consumption assay in insulin-resistant cells; assay type: cell-based, human; conditions: R-HepG2, [Insulin]=10 μM
[6] = test system: non-everted mouse small intestine sac; conditions: pure insulin; cited from earlier work
[7] = test system: STZ-induced diabetic rats; assay: In vivo oral glucose tolerance test (OGTT); set-up: species or system Wistar rats; conditions: glucose 2.5 g·kg^−1 by gavage 3 hours after treatment, 280 minutes; SC 5 IU·kg^−1 or oral 50 IU·kg^−1

For insulin, the “histopathology of liver and kidney” value [1] was “commonly observed damages to the liver and kidney”, the “histopathology of the kidney” value [1] was “increase of the size of Bowman capsules, hypertrophy of the glomeruli and necrosis of the tubules” and the “histopathology of the liver” value [1] was “increase of big hepatocytes, a necrosis of hepatocytes and a narrowing in the sinusoids”. For the same substance, the “persistence of the blood glucose reduction” value [2] was “the effect was not sustained”, the “time to marked reduction of the blood glucose level” value [2] was ≤ 1 h and the HOMA-IR [3] was 0.6 (0.3). For the same substance, the HOMA-IS [3] was 50.4 (11.0), the “intracellular insulin-FITC signal / localization” value [4] was “no detectable intracellular insulin-FITC signal” and the “change of cellular glucose metabolism after 4 h” value ([5]; t=4 h) was “transient increase in cellular glucose metabolism”. The “change of cellular glucose metabolism / insulin resistance after 24 h” value ([5]; t=24 h) was “statistically significant worsening”, the “Permeability (reported value)” value [6] was 8.02 μg·cm^−2 and the “glycaemia in OGTT” value [7] was “decreases severely the glucose plasma level the two first hours after the glucose gavage”.
